Data published in US20120030841A1, “Isoxazoline compounds for combating invertebrate pests” (BASF SE, priority 2009, published 2012).

Key:
Format in all cases: in vivo
[1] = test system: Mediterranean fruitfly (Ceratitis capitata); assay: Mediterranean fruitfly egg/larval test on insect diet, microtiter plates; details: 120 h, sprayed onto insect diet, egg and larval mortality, 5 days, read-out: mortality in comparison with untreated controls
Procedure: (§1) The test solution was prepared the day it was used and in general at concentrations of […] (wt/vol).
For evaluating control of Mediterranean fruitfly (Ceratitis capitata) the test unit consisted of microtiter plates containing an insect diet and 50-80 C. capitata eggs.
The compounds were formulated using a solution containing 75% v/v water and 25% v/v DMSO. Different concentrations of formulated compounds were sprayed onto the insect diet at 5 μl, using a custom built micro atomizer, at two replications. After application, microtiter plates were incubated at about 28±1° C. and about 80±5% relative humidity for 5 days. Egg and larval mortality was then visually assessed.

[2] = test system: southern armyworm (Spodoptera eridania); assay: Southern armyworm foliar spray test on lima bean plants; details: 96 h, armyworm larvae, 4 days after treatment, read-out: mortality in comparison with untreated controls
Procedure: as §1
The active compounds were formulated in cyclohexanone as a 10,000 ppm solution supplied in tubes. The tubes were inserted into an automated electrostatic sprayer equipped with an atomizing nozzle and they served as stock solutions for which lower dilutions were made in 50% acetone:50% water (v/v). A nonionic surfactant (Kinetic®) was included in the solution at a volume of 0.01% (v/v).
Lima bean plants (variety Sieva) were grown 2 plants to a pot and selected for treatment at the 1St true leaf stage. Test solutions were sprayed onto the foliage by an automated electrostatic plant sprayer equipped with an atomizing spray nozzle. The plants were dried in the sprayer fume hood and then removed from the sprayer. Each pot was placed into perforated plastic bags with a zip closure. About 10 to 11 armyworm larvae were placed into the bag and the bags zipped closed. Test plants were maintained in a growth room at about 25° C. and about 20-40% relative humidity for 4 days, avoiding direct exposure to fluorescent light (24 hour photoperiod) to prevent trapping of heat inside the bags. Mortality and reduced feeding were assessed 4 days after treatment, compared to untreated control plants.

[3] = test system: green peach aphid (Myzus persicae); assay: Green peach aphid systemic test, artificial diet under membrane, 96-well plates; details: 72 h, adult aphids on treated artificial diet, 3 days, read-out: mortality in comparison with untreated controls
Procedure: as §1
For evaluating control of green peach aphid (Myzus persicae) through systemic means the test unit consisted of 96-well-microtiter plates containing liquid artificial diet under an artificial membrane.
The compounds were formulated using a solution containing 75% v/v water and 25% v/v DMSO. Different concentrations of formulated compounds were pipetted into the aphid diet, using a custom built pipetter, at two replications.
After application, 5-8 adult aphids were placed on the artificial membrane inside the microtiter plate wells. The aphids were then allowed to suck on the treated aphid diet and incubated at about 23±1° C. and about 50±5% relative humidity for 3 days. Aphid mortality and fecundity was then visually assessed.

[4] = test system: boll weevil (Anthonomus grandis); assay: Boll weevil egg/larval test on insect diet, 24-well plates; details: 120 h, sprayed onto insect diet, egg and larval mortality, 5 days, read-out: mortality in comparison with untreated controls
Procedure: as §1
For evaluating control of boll weevil (Anthonomus grandis) the test unit consisted of 24-well-microtiter plates containing an insect diet and 20-30 A. grandis eggs.
The compounds were formulated using a solution containing 75% v/v water and 25% v/v DMSO. Different concentrations of formulated compounds were sprayed onto the insect diet at 20 μl, using a custom built micro atomizer, at two replications.
After application, microtiter plates were incubated at about 23±1° C. and about 50±5% relative humidity for 5 days. Egg and larval mortality was then visually assessed.

[5] = test system: tobacco budworm (Heliothis virescens); assay: Tobacco budworm egg/larval test on insect diet, 96-well plates; details: 120 h, sprayed onto insect diet, egg and larval mortality, 5 days, read-out: mortality in comparison with untreated controls
Procedure: as §1
For evaluating control of tobacco budworm (Heliothis virescens) the test unit consisted of 96-well-microtiter plates containing an insect diet and 15-25 H. virescens eggs. The compounds were formulated using a solution containing 75% v/v water and 25% v/v DMSO. Different concentrations of formulated compounds were sprayed onto the insect diet at 10 μl, using a custom built micro atomizer, at two replications. After application, microtiter plates were incubated at about 28±1° C. and about 80±5% relative humidity for 5 days. Egg and larval mortality was then visually assessed.

FC(F)(F)C1(c2cc(Cl)cc(Cl)c2)CC(c2ccnc3c(Br)cccc23)=NO1 (centres unmarked) [Compound 1-1, 8-bromo-4-[5-(3,5-dichloro-phenyl)-5-trifluoromethyl-4,5-di-hydroisoxazol-3-yl]-quinoline]
> 75%: mortality at 2500 ppm [1] | mortality at 300 ppm [2] | mortality at 2500 ppm [3] | mortality at 2500 ppm [4] | mortality at 2500 ppm [5]

N#Cc1cccc2c(C3=NOC(c4cc(Cl)cc(Cl)c4)(C(F)(F)F)C3)ccnc12 (centres unmarked) [Compound 1-2, 4-[5-(3,5-dichloro-phenyl)-5-trifluoromethyl-4,5-di-hydroisoxazol-3-yl]-quinoline-8-carbonitrile]
> 75%: mortality at 2500 ppm [1] | mortality at 300 ppm [2] | mortality at 2500 ppm [4] | mortality at 2500 ppm [5]

COC(=O)c1cccc2c(C3=NOC(c4cc(Cl)cc(Cl)c4)(C(F)(F)F)C3)ccnc12 (centres unmarked) [Compound 1-3, 4-[5-(3,5-dichloro-phenyl)-5-trifluoromethyl-4,5-di-hydroisoxazol-3-yl]-quinoline-8-carboxylic acid methyl ester]
> 75%: mortality at 2500 ppm [1] | mortality at 2500 ppm [4]
